Assay results published in US20020072127A1, “Assay of chemical binding” (priority 2000, published 2002).

Test: Micro-cantilever deflection on ligand-receptor binding (biotin-coated micro-cantilever immersed in water in small vessel)
Text: Referring to FIG. 1, a micro-cantilever 10 is fixed at one end to a block 12. The micro-cantilever 10 is generally V-shaped in plan, comprising two converging strips 13,14, which are integral with a transverse cross strip 15. It projects 0.2 mm from the block 12, the strips 13 and 14 each being 24 microns wide and the entire micro-cantilever 10 is of silicon nitride of thickness 0.6 microns. The top surface of the micro-cantilever 10 is coated with a 5 nm layer of chromium followed by a 13 nm layer of gold, to improve its optical reflectivity. The gold on one strip 13 is then coated with octadecanethiol, which forms a self-assembled, highly ordered monolayer on gold, and biotin is then bonded to this monolayer. Biotin acts as a selective receptor for avidin.
Referring now to FIG. 2 any deflection or twisting of the micro-cantilever 10 is detected optically, by focusing a light beam from a laser diode 16 onto the cross strip 15, and detecting the reflection with a quadrant photodiode 18. The light intensities detected by the four segments of the photodiodo 19 may be used to determine the deflection of the cross strip 15. If the micro-cantilever 10 is exposed to a solution of avidin, which binds to the biotin, this changes the surface stress of the strip 13, causing the micro-cantilever 10 to twist, so changing the inclination of the cross strip 15.
The time at which the avidin is injected is indicated by the arrow A. Before this time the deflection is substantially constant. The gradual change in deflection over a period of about five minutes, the deflection then reaching a new, steady value differing by h from its initial value. The bending is caused by the surface stress change resulting from the reaction; the change in surface stress is, at least approximately, equal to the change of surface energy, which can be related to the concentration c or the ligand and the equilibrium constant K of the binding reaction onto the surface (i.e. ka/kd, where ka is the adsorption coefficient and kd is the desorption coefficient).

Row | binding strength to biotin relative to immunoglobulin G (FIG. 5, avidin displaces bound immunoglobulin G) | further deflection of the micro-cantilever (FIG. 5, avidin injected (arrow Q) after IgG had bound to biotin, arbitrary units) | deflection of the micro-cantilever resulting from injection (FIG. 5, IgG injected first (arrow P), arbitrary units, steady value after several minutes) | deflection resulting from the initial injection (FIG. 6, concentration in vessel 0.047 μM, after about 10 minutes, arbitrary units) | deflection resulting from the second injection (FIG. 6, concentration raised to 0.068 μM, after a further 10 minutes, arbitrary units) | Substance
1 | binds to biotin more strongly | about 200 units | – | – | – | avidin
2 | – | – | about 200 units | about 235 units | about 290 units | immunoglobulin G
